The values below come from publication PMC7259758 (PLoS ONE, 2020).

By IC50 is commonly meant the point on the concentration scale where inhibition reaches its midpoint. What is called EC50 is the midpoint of the concentration-response curve.

Like-named read-outs stand apart in the source and are kept apart here. Where only a bound is given, the exact number is not on record here.

For assay [1], the target named is T1, SF3B1 (Homo sapiens, UniProt O75533+Q7RTV0).
T1 construct: endogenous in cells
Nature of the assay: Competitive antagonist assay (TESLR in the presence of SD6 or hit compound). Format: cell-based. The conditions noted are these: 1 h pre-treatment with analog, then 4 μM SD6 for another 4 hours; read-out: IC50 for antagonism of SD6 activity in the TESLR assay. Here is the method: SK-MEL-2/Luc-MDM2 stable cells were plated at a density of 20,000 cells/well in 96-well plates and incubated overnight at 37°C in 5% CO2.[27, 28] The following day, cells were treated with 14 analogs using serial dilution for one hour. The list of compounds screened as potential TESLR antagonists are show in SI file. After one-hour pre-treatment, 4 μM of SD6 were added to the pre-treated cells for another 4 hours. Either 0.5% DMSO or serial dilutions of SD6 were used to treat cells for 4 hours as controls. At the end of incubation time, ONE-Glo™ EX reagents (Promega) were added to measure the luciferase activity. […]
Fig 6 Competitive antagonist assay. (Left Panel) The assay that identified two antagonists of SD6 activity in the TESLR screen, which are useful for the determination of SF3B1 binding. Relative luminescent units were plotted against corresponding drug concentrations and fitted with a standard four parameter sigmoidal curve with GraphPad Prism. (Right Panel) The structures of the antagonists and SD6. See SI for chemistry details.
. SK-MEL-2/Luc-MDM2 stable cells were plated at a density of 20000/well in 96-well plates and incubated overnight at 37°C in 5% CO2. […]. After one-hour pre-treatment, serial dilutions of the sudemycinol C were added to the pre-treated cells for another 4 hours. […]. At the end of incubation time, ONE-Glo™ EX reagents (Promega) were added to measure the luciferase activity. […]. DR: dose response.

Assay [2] has as its system triple-exon skipping of MDM2 pre-mRNA in SK-MEL-2/Luc-MDM2 cells. Nature of the assay: TESLR (Triple Exon Skipping Luciferase Reporter) dose response. The conditions noted are these: for TESLR Maximum fold change: SK-MEL-2/Luc-MDM2 cells, 4 hours, luciferase activity.
Experimental: SK-MEL-2/MDM2-Luc stable cells were cultured in MEM medium with Earle's salts and L-glutamine containing 1 mM sodium pyruvate, 10% FCS and 10 mM Hepes and plated at a density of 10,000/well in 96-well plates and incubated overnight at 37°C in 5% CO2. The following day, cells were treated with serial dilutions of compounds for 4 hrs, ONE-Glo reagents (Promega) were added to measure the luciferase activity on an EnVision plate reader. SD6 and 0.5% DMSO were used as positive and negative controls, respectively. Relative luminescent units were plotted against corresponding drug concentrations and fitted with a standard four parameter sigmoidal curve with GraphPad Prism.
The TESLR assay in SK-MEL-2/Luc-MDM2 cells with 4 hour treatment. SK-MEL-2/Luc-MDM2 stable cells were plated at a density of 20,000 cells/well in 96-well plates and incubated overnight at 37°C in 5% CO2. The following day, cells were treated with either 0.5% DMSO or serial dilution of hits identified from the library screen in 0.5% DMSO for 4 hours. ONE-Glo™ EX reagent (Promega) was added to measure the luciferase activity using an EnVision plate reader. Relative luminescent units were plotted against corresponding drug concentrations and fitted with a standard four parameter sigmoidal curve with GraphPad Prism.
SK-MEL-2/Luc-MDM2 stable cells were plated at a density of 20,000 cells/well in 96-well plates and incubated overnight at 37°C in 5% CO2. The following day, cells were treated with serial dilutions of the indicated compounds for 4 hours and ONE-Glo™ EX reagents (Promega) were added to measure the luciferase activity.
Assay [3] deals with CLK1. More on the design: method as in PMID 29191878. The conditions noted are these: chemoproteomic analysis; read-out: affinity for CLK1 (IC50); cited from earlier work.
Where [4] appears, read: Homo sapiens, SK-MEL-2, 4 h, read-out: TESLR IC50 in inducing triple exon skipping.

In the case of `CC(C=CC1CC2(CO2)CC(C)(C)O1)=CCC1CCC(NC(=O)C=CC(C)O)CC1` (stereo not shown) [Sudemycinol C, sudemycinol C], in assay [1], the IC50 was found to be 0.97 µM.
The same measure, in the same setting: the result for `CC(C=CC1CC2(CO2)CC(C)(C)O1)=CCC1OCC(NC(=O)C=CC(C)O)CO1` (stereo not shown) [Sudemycinol E, sudemycinol E] reads 16.1 µM.
In the case of `CN1CC[C@H](c2c(O)cc(O)c3c(=O)cc(-c4ccccc4Cl)oc23)[C@H](O)C1` [flavopiridol], the concentration for half-maximal inhibition (IC50) in assay [2] (setting [4]) is over 10 µM.
Turning to `CC(=O)c1c(C)c2cnc(Nc3ccc(N4CCNCC4)cn3)nc2n(C2CCCC2)c1=O` [palbociclib], the half-maximal inhibitory concentration (IC50) was 0.276 µM in assay [3]; about 291 µM in assay [2] (Homo sapiens, SK-MEL-2, 4 h, read-out: TESLR IC50 (as printed in Fig 5)); 10 to 300 µM in assay [2] (setting [4]). Further, the “TESLR Maximum fold change” value in assay [2] worked out at 2.92.
On to `O=C(O)c1ccc2c(c1)nc(Nc1cccc(Cl)c1)c1ccncc12` [silmitasertib], for which the concentration giving a half-maximal response (EC50) in assay [2] (Homo sapiens, SK-MEL-2, 4 h, read-out: TESLR EC50) is 19.9 µM. Further, in assay [2] (setting [4]), the half-maximal inhibitory concentration (IC50) is 10 to 300 µM. In addition, in assay [2], the “TESLR Maximum fold change” value came to 31.5.
